Data on three compounds can be found in BindingDB's records for doi:10.1021/acs.jmedchem.6b01363 (Genentech, 2017).

For the test, the target named is Transcription factor p65 (Human, UniProt Q04206). Briefly: Inhibition of TNF-alpha-stimulated RELA translocation from cytoplasm to nucleus in human HeLa cells preincubated for 4.5 hrs followed by TNF-alpha stimulation measured after 30 mins.
Chain of Transcription factor p65 (Q04206 whole entry): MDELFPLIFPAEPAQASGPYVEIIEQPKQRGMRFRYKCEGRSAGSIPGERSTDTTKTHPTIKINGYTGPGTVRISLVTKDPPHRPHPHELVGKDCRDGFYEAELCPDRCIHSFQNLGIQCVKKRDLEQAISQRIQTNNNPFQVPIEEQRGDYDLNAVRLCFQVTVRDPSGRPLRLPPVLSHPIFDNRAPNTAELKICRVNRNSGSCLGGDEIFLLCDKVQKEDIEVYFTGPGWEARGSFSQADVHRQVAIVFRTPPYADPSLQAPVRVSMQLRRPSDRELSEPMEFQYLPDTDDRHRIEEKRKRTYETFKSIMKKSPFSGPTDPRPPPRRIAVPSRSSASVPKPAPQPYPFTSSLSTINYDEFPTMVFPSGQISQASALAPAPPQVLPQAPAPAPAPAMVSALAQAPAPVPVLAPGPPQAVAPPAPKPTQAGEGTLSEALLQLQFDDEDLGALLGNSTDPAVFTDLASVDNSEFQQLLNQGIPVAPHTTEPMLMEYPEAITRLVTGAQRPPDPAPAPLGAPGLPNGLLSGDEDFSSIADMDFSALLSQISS
Consider `Cc1cc([C@](C)(O)C#Cc2cc3c(cc2F)OCCn2cc(C(N)=O)nc2-3)no1` [US9034866, 6], for which the IC50 (commonly the concentration at which inhibition is half-maximal) is over 20 µM.
Turning to `CNC(=O)c1c(C(N)=O)nc2n1CCOc1ccc(C#C[C@@](C)(O)c3cc(C)on3)cc1-2` [US9034866, 96], the IC50 was over 20 µM.
In the case of `Cc1cc([C@](C)(O)C#Cc2cc3c(cc2F)C2CC(C2)n2cc(C(N)=O)nc2-3)no1` [US9034866, 129], the IC50 was over 20 µM.
